Experimental data reported in US20250115597A1, “TYK2 INHIBITORS AND COMPOSITIONS AND METHODS THEREOF” (LYNK PHARMACEUTICALS CO. LTD., priority 2021, published 2025).
Read-outs that look alike come from different tables or passages of the source.

Tests used:
[1] = target: T1, TYK2 (Homo sapiens, UniProt P29597); assay: TYK2 kinase activity, microfluidic assay (Caliper EZ Reader II); assay type: biochemical; details: TYK2 1 nM, 1 mM ATP
T1 construct: purchased Carna Biosciences
Protocol: (§1) Testing for JAK1, JAK2 and TYK2 Kinase Activities
(§2) JAK activity was determined in the reaction buffer 50 mM HEPES, 0.01% Brij35, 10 mM MgCl2, 2 mM DTT by a microfluidic assay. The phosphorylation of a FAM labeled peptide substrate was monitored in the Caliper EZ Reader II (Perkin Elmer). The assay condition for each batch of enzyme (Carna Biosciences) was optimized to obtain 10% conversion rate of peptide substrate.
(§3) The test compounds were dissolved in DMSO to a stock concentration of 10 mM. Three-fold serially diluted compounds with top concentration of 5 μM were pre-incubated with JAK1, JAK2 or TYK2 for 10 min at ambient temperature. The final DMSO concentration of assay mixture was 1%. […] The reaction was stopped by adding 50 mM EDTA.
(§4) The percent inhibition was calculated by the following formula:
(§5) [formula] • wherein • Conversion %_max=the conversion rate in the positive well without addition of compound • Conversion %_sample=the conversion rate of test compounds • Conversion %_min=the conversion rate in the well without addition of enzyme
(§6) The dose-response (percent inhibition) curve was plotted and IC50 values were determined by GraphPad software.

[2] = target: T2, JAK2 (Homo sapiens, UniProt O60674); assay: JAK2 kinase activity, microfluidic assay (Caliper EZ Reader II); assay type: biochemical; details: JAK2 0.125 nM, 1 mM ATP
T2 construct: purchased Carna Biosciences
T2 sequence (O60674 whole entry): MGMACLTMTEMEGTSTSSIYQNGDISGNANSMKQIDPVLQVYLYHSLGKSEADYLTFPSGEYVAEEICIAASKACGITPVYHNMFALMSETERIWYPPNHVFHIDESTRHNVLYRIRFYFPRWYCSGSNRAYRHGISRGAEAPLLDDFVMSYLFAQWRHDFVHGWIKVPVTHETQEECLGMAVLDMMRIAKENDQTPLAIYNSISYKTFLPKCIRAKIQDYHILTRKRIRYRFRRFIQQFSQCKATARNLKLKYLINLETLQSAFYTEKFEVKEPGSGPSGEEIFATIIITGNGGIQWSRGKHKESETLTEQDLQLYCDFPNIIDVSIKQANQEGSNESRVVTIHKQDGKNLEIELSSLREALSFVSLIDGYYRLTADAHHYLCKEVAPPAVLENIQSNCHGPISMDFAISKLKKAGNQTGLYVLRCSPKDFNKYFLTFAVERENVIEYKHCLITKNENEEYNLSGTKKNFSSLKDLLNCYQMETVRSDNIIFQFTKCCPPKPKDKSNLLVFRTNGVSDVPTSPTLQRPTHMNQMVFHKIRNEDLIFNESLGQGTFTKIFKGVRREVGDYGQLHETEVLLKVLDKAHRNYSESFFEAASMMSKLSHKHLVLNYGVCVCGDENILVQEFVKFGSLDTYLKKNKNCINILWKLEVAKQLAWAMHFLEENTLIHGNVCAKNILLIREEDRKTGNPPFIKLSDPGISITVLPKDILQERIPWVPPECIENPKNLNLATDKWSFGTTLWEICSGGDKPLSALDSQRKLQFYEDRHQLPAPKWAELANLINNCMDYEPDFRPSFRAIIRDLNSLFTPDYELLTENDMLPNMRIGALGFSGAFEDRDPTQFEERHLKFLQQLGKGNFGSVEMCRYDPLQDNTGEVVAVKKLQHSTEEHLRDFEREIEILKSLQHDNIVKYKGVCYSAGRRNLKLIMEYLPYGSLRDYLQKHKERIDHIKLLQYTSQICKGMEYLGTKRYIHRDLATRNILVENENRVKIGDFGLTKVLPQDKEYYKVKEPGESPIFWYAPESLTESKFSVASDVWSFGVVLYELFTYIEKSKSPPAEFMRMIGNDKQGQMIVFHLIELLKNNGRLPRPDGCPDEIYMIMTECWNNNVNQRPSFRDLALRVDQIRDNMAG
Protocol: as §1, §2, §3, §4, §5, §6

[3] = target: T3, JAK1 (Homo sapiens, UniProt P23458); assay: JAK1 kinase activity, microfluidic assay (Caliper EZ Reader II); assay type: biochemical; details: JAK1 5 nM, 1 mM ATP
T3 construct: purchased Carna Biosciences
T3 sequence (P23458 whole entry): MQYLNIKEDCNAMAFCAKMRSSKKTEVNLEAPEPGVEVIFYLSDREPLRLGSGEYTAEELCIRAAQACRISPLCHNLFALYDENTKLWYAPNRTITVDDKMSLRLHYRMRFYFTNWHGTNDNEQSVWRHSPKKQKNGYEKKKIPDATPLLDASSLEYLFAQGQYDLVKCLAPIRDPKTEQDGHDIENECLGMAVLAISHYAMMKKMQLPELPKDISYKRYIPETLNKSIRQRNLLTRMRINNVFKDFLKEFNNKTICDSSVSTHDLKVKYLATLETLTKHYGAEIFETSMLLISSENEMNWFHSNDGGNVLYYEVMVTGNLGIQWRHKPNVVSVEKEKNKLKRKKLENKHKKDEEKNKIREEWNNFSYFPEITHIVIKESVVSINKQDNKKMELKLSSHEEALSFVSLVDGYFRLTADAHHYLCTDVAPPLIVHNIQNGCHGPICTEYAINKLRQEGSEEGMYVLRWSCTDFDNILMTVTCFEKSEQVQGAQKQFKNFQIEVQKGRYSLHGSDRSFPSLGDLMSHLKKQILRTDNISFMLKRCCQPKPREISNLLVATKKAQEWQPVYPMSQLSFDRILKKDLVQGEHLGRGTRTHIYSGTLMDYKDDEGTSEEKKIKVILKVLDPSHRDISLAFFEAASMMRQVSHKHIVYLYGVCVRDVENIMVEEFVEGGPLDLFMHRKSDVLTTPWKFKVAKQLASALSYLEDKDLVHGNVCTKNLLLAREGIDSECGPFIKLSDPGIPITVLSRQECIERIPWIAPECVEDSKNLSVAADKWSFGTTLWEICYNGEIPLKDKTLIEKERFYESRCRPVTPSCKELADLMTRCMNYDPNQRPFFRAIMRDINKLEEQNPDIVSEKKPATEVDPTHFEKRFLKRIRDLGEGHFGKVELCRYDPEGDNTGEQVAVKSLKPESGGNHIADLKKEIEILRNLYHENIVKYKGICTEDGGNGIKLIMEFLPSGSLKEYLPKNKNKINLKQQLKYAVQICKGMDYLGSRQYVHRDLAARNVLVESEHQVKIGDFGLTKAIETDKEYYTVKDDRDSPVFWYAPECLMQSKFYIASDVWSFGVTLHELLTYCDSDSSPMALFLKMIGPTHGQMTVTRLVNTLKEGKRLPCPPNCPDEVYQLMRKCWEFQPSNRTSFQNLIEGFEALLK
Protocol: as §1, §2, §3, §4, §5, §6

[4] = target: T4, Ba/F3-FL-TYK2-P760L cells (Homo sapiens, UniProt P29597, P760L, cells depend on it); assay: Anti-proliferative assay, Ba/F3-FL-TYK2-P760L cells (Cell-Titer Glo); assay type: cell-based; details: 72 h, read-out: BaF3-FL-T2P760L IC50
T4 construct: BaF3-FL-T2P760L (nM)
T4 sequence (P29597 whole entry P760L): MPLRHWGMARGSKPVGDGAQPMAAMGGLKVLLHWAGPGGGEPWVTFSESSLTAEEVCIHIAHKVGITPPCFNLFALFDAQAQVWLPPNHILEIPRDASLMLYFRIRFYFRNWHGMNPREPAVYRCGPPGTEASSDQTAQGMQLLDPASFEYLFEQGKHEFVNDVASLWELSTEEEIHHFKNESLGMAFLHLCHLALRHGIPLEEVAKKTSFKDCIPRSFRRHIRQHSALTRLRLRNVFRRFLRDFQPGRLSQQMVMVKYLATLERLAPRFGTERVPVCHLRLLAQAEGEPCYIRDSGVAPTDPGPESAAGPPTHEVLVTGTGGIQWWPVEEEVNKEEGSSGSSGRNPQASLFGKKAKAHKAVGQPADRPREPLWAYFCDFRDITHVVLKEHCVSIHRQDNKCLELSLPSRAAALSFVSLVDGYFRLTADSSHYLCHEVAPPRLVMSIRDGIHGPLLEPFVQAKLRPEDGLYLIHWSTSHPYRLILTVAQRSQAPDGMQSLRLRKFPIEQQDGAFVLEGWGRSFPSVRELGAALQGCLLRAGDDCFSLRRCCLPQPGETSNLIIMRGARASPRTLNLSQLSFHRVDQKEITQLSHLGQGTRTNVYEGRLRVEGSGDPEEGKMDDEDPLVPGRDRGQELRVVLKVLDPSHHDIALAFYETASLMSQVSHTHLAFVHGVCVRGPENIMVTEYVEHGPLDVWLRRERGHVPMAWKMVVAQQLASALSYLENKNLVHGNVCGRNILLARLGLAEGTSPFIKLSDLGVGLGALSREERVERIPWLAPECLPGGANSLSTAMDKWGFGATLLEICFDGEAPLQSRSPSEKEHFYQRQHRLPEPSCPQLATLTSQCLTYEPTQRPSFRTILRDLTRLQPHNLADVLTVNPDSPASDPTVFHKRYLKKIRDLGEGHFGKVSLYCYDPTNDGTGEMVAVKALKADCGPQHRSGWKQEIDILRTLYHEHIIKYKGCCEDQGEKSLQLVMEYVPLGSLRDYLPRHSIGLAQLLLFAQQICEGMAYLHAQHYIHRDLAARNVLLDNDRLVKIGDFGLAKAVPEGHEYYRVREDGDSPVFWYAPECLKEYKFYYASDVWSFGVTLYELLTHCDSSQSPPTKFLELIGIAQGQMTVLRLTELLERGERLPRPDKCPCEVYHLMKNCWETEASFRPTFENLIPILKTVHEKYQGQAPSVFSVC
Outline: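 Compound exposure ran 72 h at 37 °C in 5% CO2 across nine 3-fold concentrations from a 20 μM top dose, added 24 h after seeding 2000 cells/well.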

[5] = Microsomal metabolic stability assay; assay type: in vitro ADME; details: pH 7.4, 0.5 mg/mL protein, 1 μM compound
Outline: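 Parent loss was tracked by LC/MS/MS at 0, 5, 15, 30 and 45 min, with half-life derived from the ln(% remaining)–time slope. Incubation at 37 °C, pH 7.4 phosphate/EDTA buffer: 0.5 mg/mL microsomes, 1 μM compound, NADPH-regenerated (2 mM).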

[6] = Hepatocytes metabolic stability assay; assay type: in vitro ADME; details: cryopreserved hepatocytes, human hepatocytes, 1.0×10^6 cells/mL
Protocol: Hepatocytes Metabolic Stability Assay
The vials of cryopreserved hepatocytes were removed from the liquid nitrogen container and immediately immersed in a 37° C. water bath for approximately 2 min. The melted ice pellets were transferred into tubes containing 50 mL of pre-warmed thawing medium and mixed well by gently inverting the tubes, and then centrifuged at 500 rpm for 3 minutes at room temperature. The supernatants were discarded, and cell pellets were re-suspended by adding appropriate volumes of pre-warmed incubation medium. The cells viability of each species was determined using Trypan Blue exclusion. Add 50 μL of pre-warmed 2× dosing solution to the wells designated for different time points. Then 50 μL of cells suspension (2×10^6 cells/mL) were added into appropriate wells at corresponding time points of T15, T30, T60, T120. Start timing and put the plate in an incubator at 37° C. For TO sample, add 300 μL of ACN containing internal standard to the wells, mix gently, then add 50 μL of pre-warmed hepatocytes solution (2×10^6 cells/mL). The concentration of test compound was 1 μM and 1.0×10^6 cells/mL in the final incubation. At each corresponding time point, test and control compounds reaction samples were stopped by adding 300 μL acetonitrile containing internal standard. All sample plates were thoroughly mixed and centrifuged at 5000×g for 15 minutes. The supernatants were diluted at ratio of 1:1 with ultra-pure water for test and positive controls. Then submitted for LC-MS/MS analysis.
The analyte/internal standard peak area ratios were converted to percentage remaining with the following equation: […]
The in vitro elimination constant, k of test compounds and control compounds were calculated from a log linear plot of % Remaining versus time, then the half-life (T1/2), the estimation of the in vitro hepatic intrinsic clearance (CLint) values were calculated from substrate disappearance rate in hepatocytes incubation: […]

[7] = Plasma protein binding by equilibrium dialysis; assay type: in vitro ADME; details: human plasma, equilibrium dialysis 5 hours at 37° C.; read-out: % Bound (human) (converted)
Protocol: Plasma Protein Binding by Equilibrium Dialysis
Aliquots of test compound stock solution and warfarin stock solution were spiked into plasma to give the matrix solutions with theoretical concentrations of test compound at 0.2 and 2 μM or warfarin at 2 μM. Immediately transfer 50 μL of the spiked plasma solution suspension to a 96-well plate to act as T=0 control sample. Assemble the dialysis set up following the manufacturer's instructions. Load cells with 150 μL of plasma sample and dialyzed against equal volume of dialysis buffer (PBS). The assay is performed in duplicate. Cover the unit with gas permeable lid and incubate for 5 hours at 37° C. at 100 rpm in a constant temperature shaking box. At the end of incubation, remove lid and pipette 50 μL of post-dialysis samples from both buffer and plasma solution chambers into separated 96-well plate for analysis, respectively. Add 50 μL of plasma solution to the buffer samples, and an equal volume of PBS to the collected plasma solution samples. Shake the plate at 1000 rpm for 2 minutes and add 600 μL of 50% ACN/MeOH containing an appropriate internal standard (IS) to precipitate protein and release compound. Vortex at 1000 rpm for 10 minutes. Centrifuge for 10 minutes at 4000 rpm. Then transfer 75 μL of the supernatant to new 96-well plates for analysis. Add 150 μL of distilled water to each sample and mix for analysis by LC-MS/MS.
The free rate (% Unbound), binding rate (% Bound), and recovery rate (% Recovery) of the compound are calculated as follows: […]

[8] = target: T5, JAK1-JH2 domain (Homo sapiens, UniProt P23458); assay: Binding activity test for JH2 domain of JAK1 (Tb-antibody/tracer FRET)
T5 construct: IC50 on JH2 domain activity (nM)
T5 sequence (P23458 583-855 limits assumed): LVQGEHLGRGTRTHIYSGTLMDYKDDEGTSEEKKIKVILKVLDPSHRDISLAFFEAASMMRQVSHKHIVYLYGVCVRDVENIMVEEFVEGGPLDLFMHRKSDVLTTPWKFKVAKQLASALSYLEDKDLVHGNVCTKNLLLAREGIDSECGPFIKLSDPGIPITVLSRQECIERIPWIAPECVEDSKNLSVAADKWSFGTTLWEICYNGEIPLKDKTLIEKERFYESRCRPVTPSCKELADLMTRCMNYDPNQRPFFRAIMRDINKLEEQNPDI
Outline: (§7)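 FRET read-out after 60 min at 25° C plus overnight at 4° C; tracer displacement detected via Tb-labelled antibody on the JH2 domain. Dose-response used 11 points at 3-fold dilution.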

[9] = target: T6, TYK2-JH2 domain (Homo sapiens, UniProt P29597); assay: Binding activity test for JH2 domain of TYK2 (Tb-antibody/tracer FRET); details: for JAK1/TYK2 selectivity: ratio JAK1-JH2 IC50 / TYK2-JH2 IC50
T6 construct: IC50 on JH2 domain activity (nM)
T6 sequence (P29597 589-875 limits assumed): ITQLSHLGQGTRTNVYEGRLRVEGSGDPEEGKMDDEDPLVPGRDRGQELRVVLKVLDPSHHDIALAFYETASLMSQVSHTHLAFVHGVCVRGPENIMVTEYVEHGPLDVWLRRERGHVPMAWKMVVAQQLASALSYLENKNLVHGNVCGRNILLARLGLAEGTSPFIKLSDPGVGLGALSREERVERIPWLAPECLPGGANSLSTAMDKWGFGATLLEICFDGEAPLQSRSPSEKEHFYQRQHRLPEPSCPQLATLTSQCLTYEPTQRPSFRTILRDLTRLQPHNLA
Outline: as §7

[10] = tested on: pSTAT1; assay: Phosphorylation inhibition of STAT in human whole blood, IFN-alpha stimulated (flow cytometry); assay type: cell-based; details: 20 min; human whole blood, IFN-alpha 20 mins, CD3 cells; read-out: IC50 on pSTAT1 inhibition in h WB
Protocol: Phosphorylation Inhibition of STAT in Human PBMC and Human Whole Blood Testing:
The inhibitory potential of test articles in human PBMC and human whole blood assay was evaluated by the method of flow cytometry.
IFN-alpha will activate JAK1 and TYK2 kinase in T cells by binding to IFN receptors, and then lead to phosphorylation of STAT1 and STAT2. The phosphorylated STAT1 enter nuclear and promote transcription and expression of IFN-gamma. To evaluate the efficacy of TYK2i in T cells, freshly prepared human PBMC or freshly collected human whole blood will be stimulated with certain unit of human IFN-alpha (Universal Type I IFN(1MU), R&D, 11200-2) for 20 mins in incubator. After stimulation, fix cells with Phosflow™ Fix Buffer I (BD, 557870), and then collect fixed cells by centrifugation (500 g, 8 min). Wash cells once with pre-cooled PBS, and then permeabilize cells with cold Perm Buffer III buffer (BD, 558050) for 45 mins on ice. Collect cells by centrifugation (600 g, 8 min) and washed twice with cold PBS. Stain cells with anti-human CD3 (FITC Mouse Anti-Human CD3, BD, 555332) and anti-pSTAT1_Y701(Alexa Fluor 647 Mouse Anti-Stat1 (pY701), BD, 612597) antibodies. Detect pSTAT1 by flow cytometry (CytoFlex S) and analyze data with FlowJo and GraphPad Prism 8 software. IC50 values of test articles were determined using 4-parameter logistic equation.

[11] = dog liver microsomes, read-out: Dog LM Clint
[12] = dog liver microsomes, read-out: Dog LM T½
[13] = human liver microsomes, read-out: Human LM Clint
[14] = human liver microsomes, read-out: Human LM T½
[15] = rat liver microsomes, read-out: Rat LM Clint
[16] = rat liver microsomes, read-out: Rat LM T½

T1 sequence (P29597 whole entry): as the sequence (P29597 whole entry P760L) above, with L760P counted along it

IC50 [1] [nM] | IC50 [2] [nM] | IC50 [3] [nM] | GI50 [4] [nM] | fraction unbound at 5 h [7] | IC50 [8] [nM] | IC50 [9] [nM] | JAK1/TYK2 selectivity [9] | SMILES | further results
> 5000 | > 5000 | > 5000 | 88.1 |  |  |  |  | CCN1CCc2scc(Nc3cc(NC(=O)C4CC4)ncc3C(=O)NC)c2C1=O [Example 39, 6-(Cyclopropanecarboxamido)-4-((5-ethyl-4-oxo-4,5,6,7-tetrahydrothieno [3,2-c]pyridin-3-yl)amino)-N-methyl-nicotinamide] | 
> 5000 | > 5000 | > 5000 | 499 |  |  |  |  | CNC(=O)c1cnc2nc1Nc1cc(cc(-c3ncn(C)n3)c1OC)COCc1cccc(c1)N2 [Example 33, 10-Methoxy-N-methyl-11-(1-methyl-1,2,4-triazol-3-yl)-15-oxa-2,4,8,23-tetrazatetracyclo[15.3.1.13,7.19,13]tricosa-1(21),3(23),4,6,9,11,13(22),17,19-nonaene-6-carboxamide] | microsomal CLint at 1 μM [5, 11]: 14.5 µL/min/mg; half-life at 1 μM [5, 12]: 3.97 h; microsomal CLint at 1 μM [5, 13]: 26.2 µL/min/mg; half-life at 1 μM [5, 14]: 2.2 h; microsomal CLint at 1 μM [5, 15]: 21.8 µL/min/mg; half-life at 1 μM [5, 16]: 2.65 h
 |  |  | 61.4 | 0.049 |  |  |  | [2H]C([2H])([2H])NC(=O)c1cnc(NC(=O)C2CC2)cc1Nc1ccc2cnn(C([2H])([2H])C([2H])([2H])[2H])c2c1OC([2H])([2H])[2H] [Example 134, 6-(Cyclopropanecarboxamido)-4-((1-(ethyl-d5)-7-(methoxy-d3)-1H-indazol-6-yl)amino)-N-(methyl-d3)nicotinamide] | CLint scaled at 1 μM ([6]; read-out: Human hepatocyte Clint(liver)): 18 mL/min/kg; half-life at 1 μM ([6]; read-out: Human hepatocyte stability T1/2): 1.64 h
 |  |  | 565 | 0.346 | 15.2 | 0.868 | 17.5 | [2H]C([2H])([2H])NC(=O)c1cnc(NC(=O)C2CC2)cc1Nc1ccn2ncc(CO)c2c1OC [Example 225, 6-(Cyclopropanecarboxamido)-4-((3-(hydroxymethyl)-4-methoxypyrazolo[1,5-a]pyridin-5-yl)amino)-N-(methyl-d3)nicotinamide] | 
 |  |  | 221 | 0.126 | 56.5 | 1.46 | 38.8 | [2H]C([2H])([2H])NC(=O)c1cnc(NC(=O)C2CC2)cc1Nc1ccn2ncc(COC)c2c1OC [Example 226, 6-(Cyclopropanecarboxamido)-4-((4-methoxy-3-(methoxymethyl)pyrazolo[1,5-a]pyridin-5-yl)amino)-N-(methyl-d3)nicotinamide] | 
> 5000 |  |  | 77.5 |  |  |  |  | [2H]C([2H])([2H])NC(=O)c1cnc(Nc2cccc(C#N)n2)nc1Nc1cccc(-c2ncn(C)n2)c1OC [Example 21, 2-[(6-Cyano-2-pyridyl)amino]-4-[2-methoxy-3-(1-methyl-1,2,4-triazol-3-yl)anilino]-N-(trideuteriomethyl)pyrimidine-5-carboxamide] | microsomal CLint at 1 μM [5, 11]: 26.8 µL/min/mg; half-life at 1 μM [5, 12]: 0.861 h; microsomal CLint at 1 μM [5, 13]: 6.42 µL/min/mg; half-life at 1 μM [5, 14]: 3.6 h; microsomal CLint at 1 μM [5, 15]: 7.4 µL/min/mg; half-life at 1 μM [5, 16]: 3.12 h
 |  |  | 29.3 | 0.04 | 6.48 | 0.288 | 22.5 | CCn1ncc2ccc(Nc3cc(NC(=O)C4CC4)ncc3C(=O)NC)c(OC)c21 [Example 228, 6-(Cyclopropanecarboxamido)-4-((1-ethyl-7-methoxy-1H-indazol-6-yl)amino)-N-methylnicotinamide] | IC50 [10]: 245 nM
> 5000 |  |  | 1390 |  |  |  |  | CNC(=O)c1nnc(NC(=O)C2CC2)cc1Nc1cccc2ccn(C)c(=O)c12 [Example 24, 6-(Cyclopropanecarboxamido)-N-methyl-4-((2-methyl-1-oxo-1,2-dihydroisoquinolin-8-yl)amino)pyridazine-3-carboxamide] | 
> 5000 | > 5000 | > 5000 | 861 |  |  |  |  | CNC(=O)c1cnc2nc1Nc1cc(cc(-c3ncn(C)n3)c1OC)CN(C)Cc1cccc(c1)N2 [Example 22, 10-Methoxy-N,15-dimethyl-11-(1-methyl-1,2,4-triazol-3-yl)-2,4,8,15,23-pentazatetracyclo[15.3.1.13,7.19,13]tricosa-1(21),3(23),4,6,9,11,13(22),17,19-nonaene-6-carboxamide] | 
